# Test results as given in patent publication US20130209366A1, “Glutathione-Lanthionine Compounds and Methods Related Thereto” (OKLAHOMA MEDICAL RESEARCH FOUNDATION, priority 2010, published 2013).
# Marks after values point to notes of the source that are not given here.
# Columns and labels:
# syntaptosomal membranes = details: cited from earlier work
# HT-4 neurons = details: cited from earlier work
# [1] = test system: TNFα or LPS-treated microglia and macrophages; details: cited from earlier work
# NSC-34 cells = details: cited from earlier work
# [2] = test system: NSC-34 motor neuron-like cells; details: NSC-34 cells; cited from earlier work
# SOD1G93A mutant mice = experiment: Onset of paralysis and survival in SOD1G93A mouse model of familial ALS; type: in vivo; details: for age at death (d) mean / onset of paralysis (d) mean: 5 days/week from 90d
# Experimental: Additional studies to explore effects of LKE in vivo, as a pharmacological candidate were conducted in a murine model for the motoneuron disease amyotrophic lateral sclerosis (ALS). In a first effort to assess LKE effects against a model of spontaneous neurodegeneration, SOD1G93A mutant mice modeling familial ALS [27-28] were treated with intraperitoneal (i.p.) injections of 100 mg/kg/d LKE in saline vehicle, from 90d throughout the remaining mouse lifespan. LKE is relevant to test in this mouse because the SOD1G93A mouse experiences robust neuroinflammation concomitant with TNFα-driven microglial activation, oxidative stress, and significant progressive distal axonopathy, all of which might be expected to be mitigated by LKE based on the ester's observed effects in cell culture. Mouse motor function was assessed as previously described using a standard rotarod test, at sequential 10d intervals (FIG. 6). Specific groups of mice were treated with LKE in saline or saline vehicle only. […] Overall survival was increased by LKE based on logrank analysis (Table I).
# (§1) Mice were injected with synthetic gLan in saline at 50-200 mg/kg/d, five days per week (Monday-Friday) beginning at 90d of age. Mice were assessed at baseline and every 10d for motor functional ability using the rotarod task as described previously.
# Motor function dropped off rapidly amongst all groups at ages >110 d (FIG. 8). As in the case of LKE treatment, chronic intraperitoneal gLan at 100-200 mg/kg/dose tended to increase the age at which onset-of-paralysis was observed (based on a leg-clinch test) and the mean age of death of the SOD1G93A mice (Table II). When motor performance curves were interpolated to estimate the age at which mice lost an average 50% of baseline motor function, the 100 mg/kg/dose gLan treatment group reached this clinical endpoint approximately 18d later than the vehicle-treated group (FIG. 8).
# [3] = test system: primary dissociated chick dorsal root ganglia (DRG) cultures; experiment: Neurite length in primary dissociated chick dorsal root ganglia cultures; type: cell-based; details: 100 μM, treated at 2-3 DIV, 24 h
# Experimental: FIG. 5. LK-5-ethyl ester (LKE) promotes neurite extension in primary, dissociated chick dorsal root ganglia cell cultures. Neurons were treated with LKE or saline vehicle for 24 h from DIV2-3 and quantitatively assessed for neurite morphometry as described in the text.
# Cell culture studies were performed to assess LKE effects on neuritigenesis in primary dissociated chick dorsal root ganglia (DRG) cultures prepared essentially as described by Margiotta and Howard. Cultures were treated with LKE at 2-3 days in vitro (DIV), and neuron morphometry was quantified from bright field micrographs by a blinded observer using Metamorph® software (Molecular Devices, Sunnyvale Calif. USA).
# SOD1G93A mice = experiment: Rotarod motor function in SOD1G93A mice; type: in vivo, mouse
# Experimental: FIG. 8. […] Mice were treated with daily intraperitoneal injections of gLan, at the indicated dose, 5 days/week beginning at 90 d, and motor performance was evaluated by rotarod task as described in the examples.
# Additional studies to explore effects of LKE in vivo, as a pharmacological candidate were conducted in a murine model for the motoneuron disease amyotrophic lateral sclerosis (ALS). In a first effort to assess LKE effects against a model of spontaneous neurodegeneration, SOD1G93A mutant mice modeling familial ALS [27-28] were treated with intraperitoneal (i.p.) injections of 100 mg/kg/d LKE in saline vehicle, from 90d throughout the remaining mouse lifespan. LKE is relevant to test in this mouse because the SOD1G93A mouse experiences robust neuroinflammation concomitant with TNFα-driven microglial activation, oxidative stress, and significant progressive distal axonopathy, all of which might be expected to be mitigated by LKE based on the ester's observed effects in cell culture. Mouse motor function was assessed as previously described using a standard rotarod test, at sequential 10d intervals (FIG. 6). Specific groups of mice were treated with LKE in saline or saline vehicle only.
# as §1
# [4] = 100 mg/kg/d i.p. in saline from 90d, N = 15
compound,measurement,setting,value
"O=C(O)C1CSCC(C(=O)O)N1 (centres unmarked) [reduced LK, thiomorpholine dicarboxylic acid]",displacement of [35S]LK,syntaptosomal membranes,could not displace
"O=C(O)C1=NC(C(=O)O)CSC1 (centres unmarked) [LK, 2H-1,4-thiazine-5,6-dihydro-3,5-dicarboxylic acid]",protection against toxicity of high-dose glutamate,HT-4 neurons,protected
same,Kd,"syntaptosomal membranes; saturable, reversible with cold LK, read-out: Kd of [35S]LK binding to synaptosomal membranes",0.058 µM
same,nitric oxide synthesis,[1],suppressed
"CCOC(=O)C1CSCC(C(=O)O)=N1 (centres unmarked) [LKE, LK-5-ethyl ester]",growth factor-stimulated outgrowth of neurites,NSC-34 cells,promoted
same,protection from toxicity of hydrogen peroxide (H2O2),[2],protected
same,protection from toxicity of microglia-conditioned medium,[2],protected
same,overall survival,"SOD1G93A mutant mice; 100 mg/kg/d i.p. from 90d, logrank analysis",increased
same,maximum age at death,SOD1G93A mutant mice; [4],152 days
same,median age at death (d),SOD1G93A mutant mice; [4],139† d
same,minimum age at death,SOD1G93A mutant mice; [4],124 days
same,age of frank paralysis,"SOD1G93A mutant mice; 100 mg/kg/d i.p. in saline from 90d, mean ± SEM, N = 15",121.6 ± 2.5 days
same,mean neurite length of dissociated DRG neurons,[3],significantly increased
same,progression of clinical motoneuron disease,"SOD1G93A mice; 100 mg/kg/d i.p. from 90d, rotarod and leg-splay test",significantly slowed
same,protection against toxicity of high-dose glutamate,HT-4 neurons,protected
same,nitric oxide synthesis,[1],suppressed
"NC(CSC[C@H](NC(=O)CC[C@H](N)C(=O)O)C(=O)NCC(=O)O)C(=O)O (some centres unmarked) [gLan, γGlu-Cys(S-Ala)-Gly]",age at death (d) mean,SOD1G93A mutant mice; gLan 50 mg/kg daily i.p.,126.7 days
same,onset of paralysis (d) mean,SOD1G93A mutant mice; gLan 50 mg/kg daily i.p.,111.6 days
same,age at death (d) mean,SOD1G93A mutant mice; gLan 100 mg/kg daily i.p.,138.3 days
same,onset of paralysis (d) mean,SOD1G93A mutant mice; gLan 100 mg/kg daily i.p.,123.8 days
same,age at death (d) mean,SOD1G93A mutant mice; gLan 200 mg/kg daily i.p.,133.1 days
same,onset of paralysis (d) mean,SOD1G93A mutant mice; gLan 200 mg/kg daily i.p.,116.7 days
same,delay versus vehicle of the age at which mice lost an average 50% of baseline motor function,"SOD1G93A mice; 100 mg/kg/dose, interpolated from motor performance curves",approximately 18 d
same,motor function (rotarod),"SOD1G93A mice; 50-200 mg/kg/d, up to 110d or 120d, 100 mg/kg optimum, p<0.01 repeated measures ANOVA",dose-dependently improved
same,average rotarod performance at 100d and 110d versus 90d baseline,SOD1G93A mice; 100-200 mg/kg/d,improved above the 90d baseline value
same,motor function relative to saline treated control animals,"SOD1G93A mice; 100-200 mg/kg/d, ages <120d",twice
